# Experiments:
# [1] = system: Strept. haemolyticus SS 17; format: cell-based; conditions: Brain Heart Infusion, estolate and RV11-RV15 previously hydrolized, unit assumed
# S. heidelberg SS 18 = format: cell-based; conditions: Brain Heart Infusion, estolate and RV11-RV15 previously hydrolized, unit assumed
# S. lutea ATCC 9341 = format: cell-based; conditions: Brain Heart Infusion, estolate and RV11-RV15 previously hydrolized, unit assumed
# H. influentiae SS 02 = format: cell-based; conditions: Brain Heart Infusion, estolate and RV11-RV15 previously hydrolized, unit assumed
# Kl. aerogenes SS 71 = format: cell-based; conditions: Brain Heart Infusion, estolate and RV11-RV15 previously hydrolized, unit assumed
# E. coli SS 04 = format: cell-based; conditions: Brain Heart Infusion, estolate and RV11-RV15 previously hydrolized, unit assumed
# Staph. aureus SS 09 = format: cell-based; conditions: Brain Heart Infusion, estolate and RV11-RV15 previously hydrolized, unit assumed
# E. cloacae SS 07 = format: cell-based; conditions: Brain Heart Infusion, estolate and RV11-RV15 previously hydrolized, unit assumed
# C. diphtheriae SS 19 = format: cell-based; conditions: Brain Heart Infusion, estolate and RV11-RV15 previously hydrolized, unit assumed
# N. gonorreae SS 27 = format: cell-based; conditions: Brain Heart Infusion, estolate and RV11-RV15 previously hydrolized, unit assumed
# [2] = Hematic levels in the rat (absorption by oral route); conditions: 100 mg/kg as erythromycin, average, 100 mg/kg
# B. subtilis SS 127 = format: cell-based; conditions: Brain Heart Infusion, estolate and RV11-RV15 previously hydrolized, unit assumed
# Citrobacter SS 05 = format: cell-based; conditions: Brain Heart Infusion, estolate and RV11-RV15 previously hydrolized, unit assumed
# [3] = system: Strept. haemolyticus SS 18; format: cell-based; conditions: Brain Heart Infusion, estolate and RV11-RV15 previously hydrolized, unit assumed
# Citrobacter SS 09 = format: cell-based; conditions: Brain Heart Infusion, estolate and RV11-RV15 previously hydrolized, unit assumed
# E. coli SS 05 = format: cell-based; conditions: Brain Heart Infusion, estolate and RV11-RV15 previously hydrolized, unit assumed
# Br. melitensis SS 19 = format: cell-based; conditions: unit assumed
# E. coli SS 07 = format: cell-based; conditions: Brain Heart Infusion, estolate and RV11-RV15 previously hydrolized, unit assumed
# Sr. marcescens SS 03 = format: cell-based; conditions: Brain Heart Infusion, estolate and RV11-RV15 previously hydrolized, unit assumed
# Staph. aureus SS 08 = format: cell-based; conditions: Brain Heart Infusion, estolate and RV11-RV15 previously hydrolized, unit assumed
# B. cereus ATCC 11778 = format: cell-based; conditions: Brain Heart Infusion, estolate and RV11-RV15 previously hydrolized, unit assumed
# Staph. aureus SS 10 = format: cell-based; conditions: Brain Heart Infusion, estolate and RV11-RV15 previously hydrolized, unit assumed
# S. infantis SS 08 = format: cell-based; conditions: Brain Heart Infusion, estolate and RV11-RV15 previously hydrolized, unit assumed
# B. anthranis SS 08 = format: cell-based; conditions: Brain Heart Infusion, estolate and RV11-RV15 previously hydrolized, unit assumed
# C. albicans SS 04 = format: cell-based; conditions: Brain Heart Infusion, estolate and RV11-RV15 previously hydrolized, unit assumed
# D. pneumoniae SS 23 [4] = assay: Experimental infection induced by D. pneumoniae SS 23; format: in vivo, Swiss white mice; conditions: Streptococcus pneumoniae, SS23, in Mus musculus, po, 168 h, os; D. pneumoniae SS 23; mg/kg of erythromycin; survival after 7 days; read-out: ED50 (reliability limits)
# Protocol: (§1) Swiss white mice of 20 g body weight were used, infected by parenteral administration of lethal amounts of pathogenic […] of Staph. aureus SS 07 and D. pneumoniae SS 23.
# (§2) The antibiotics were administered at the time of injecting the infecting germ and 6 and 24 hours later. On the basis of the survival after 7 days, the ED50 values were determined, as reported in the following table II and III, wherein the reliability limits are indicated in brackets.
# Pr. vulgaris SS 10 = format: cell-based; conditions: Brain Heart Infusion, estolate and RV11-RV15 previously hydrolized, unit assumed
# H. tubercolosis SS 03 = format: cell-based; conditions: Brain Heart Infusion, estolate and RV11-RV15 previously hydrolized, unit assumed
# Source text: (§3) In the following table I the MIC/ml values are indicated corresponding to the lowest concentration capable of inducing a complete inhibition of the bacterial development.
# Kl. pneumoniae SS 04 = format: cell-based; conditions: Brain Heart Infusion, estolate and RV11-RV15 previously hydrolized, unit assumed
# Source text: as §3
# Pr. mirabilis SS 09 = format: cell-based; conditions: Brain Heart Infusion, estolate and RV11-RV15 previously hydrolized, unit assumed
# Staph. aureus SS 07 [5] = format: cell-based; conditions: Brain Heart Infusion, estolate and RV11-RV15 previously hydrolized, unit assumed
# E. coli SS 06 = format: cell-based; conditions: Brain Heart Infusion, estolate and RV11-RV15 previously hydrolized, unit assumed
# Staph. aureus SS 07 [6] = assay: Experimental infection induced by Staph. aureus SS 07; format: in vivo, Swiss white mice; conditions: Staphylococcus aureus, SS07, in Mus musculus, po, 168 h, os; Staph. aureus SS 07; mg/kg of erythromycin; survival after 7 days; read-out: ED50 (reliability limits)
# Protocol: as §1, §2
# D. pneumoniae SS 23 [7] = format: cell-based; conditions: Brain Heart Infusion, estolate and RV11-RV15 previously hydrolized, unit assumed
# Ps. aeruginosa SS 10 = format: cell-based; conditions: Brain Heart Infusion, estolate and RV11-RV15 previously hydrolized, unit assumed
# Staph. albus SS 04 = format: cell-based; conditions: Brain Heart Infusion, estolate and RV11-RV15 previously hydrolized, unit assumed
# B. subtilis ATCC 6633 = format: cell-based; conditions: Brain Heart Infusion, estolate and RV11-RV15 previously hydrolized, unit assumed
# Br. abortus SS 7 = format: cell-based; conditions: Brain Heart Infusion, estolate and RV11-RV15 previously hydrolized, unit assumed
# N. meningitidis SS 04 = format: cell-based; conditions: Brain Heart Infusion, estolate and RV11-RV15 previously hydrolized, unit assumed
# Cl. tetani SS 17 = format: cell-based; conditions: Brain Heart Infusion, estolate and RV11-RV15 previously hydrolized, unit assumed
# E. aerogenes SS 011 = format: cell-based; conditions: Brain Heart Infusion, estolate and RV11-RV15 previously hydrolized, unit assumed
# B. anthranis SS 09 = format: cell-based; conditions: B. anthranis SS 09 (14 bis); Brain Heart Infusion; estolate and RV11-RV15 previously hydrolized; unit assumed
# Acute toxicity = format: in vivo; conditions: mouse, in vivo, po; os; mortality 10 days after treatment; mice; read-out: LD50 (reliability limits)
# Protocol: The acute toxicity was assessed in Swiss white mice by oral and intravenous route. The LD50 values have been calculated by the methods of Probits, starting from the mortality recorded 10 days after the treatment.
# Strept. faecalis SS 19 = format: cell-based; conditions: Brain Heart Infusion, estolate and RV11-RV15 previously hydrolized, unit assumed
# Staph. albus SS 03 = format: cell-based; conditions: Brain Heart Infusion, estolate and RV11-RV15 previously hydrolized, unit assumed
# H. pertussis SS 03 = format: cell-based; conditions: Brain Heart Infusion, estolate and RV11-RV15 previously hydrolized, unit assumed
structure (smiles),measurement,setting,value
CC[C@H]1OC(=O)[C@H](C)[C@@H](O[C@H]2C[C@@](C)(OC)[C@@H](O)[C@H](C)O2)[C@H](C)[C@@H](O[C@@H]2O[C@H](C)C[C@H](N(C)C)[C@H]2O)[C@](C)(O)C[C@@H](C)C(=O)[C@H](C)[C@@H](O)[C@]1(C)O [erythromycin],MIC,[1],3 µg/mL
same,MIC,S. heidelberg SS 18,100 µg/mL
same,MIC,S. lutea ATCC 9341,0.01 µg/mL
same,MIC,H. influentiae SS 02,1.5 µg/mL
same,MIC,Kl. aerogenes SS 71,50 µg/mL
same,MIC,E. coli SS 04,100 µg/mL
same,MIC,Staph. aureus SS 09,0.1 µg/mL
same,MIC,E. cloacae SS 07,> 200 µg/mL
same,MIC,C. diphtheriae SS 19,0.01 µg/mL
same,MIC,N. gonorreae SS 27,0.8 µg/mL
same,Hematic levels in the rat,"[2]; 2 hours, 120 min",1.15 µg/mL
same,Hematic levels in the rat,"[2]; 6 hours, 360 min",0.03 µg/mL
same,concentration at 0.3 h,"[2]; rat, blood, po, Hematic levels in the rat, 0.30 hours",710 ng/mL
same,concentration at 1 h,"[2]; rat, blood, po, Hematic levels in the rat, 1 hour",1030 ng/mL
same,concentration at 3 h,"[2]; rat, blood, po, Hematic levels in the rat, 3 hours",1050 ng/mL
same,concentration at 4 h,"[2]; rat, blood, po, Hematic levels in the rat, 4 hours",370 ng/mL
same,concentration at 5 h,"[2]; rat, blood, po, Hematic levels in the rat, 5 hours",260 ng/mL
same,MIC,B. subtilis SS 127,0.05 µg/mL
same,MIC,Citrobacter SS 05,> 200 µg/mL
same,MIC,[3],1.5 µg/mL
same,MIC,Citrobacter SS 09,> 200 µg/mL
same,MIC,E. coli SS 05,50 µg/mL
same,MIC,Br. melitensis SS 19,3 µg/mL
same,MIC,E. coli SS 07,50 µg/mL
same,MIC,Sr. marcescens SS 03,200 µg/mL
same,MIC,Staph. aureus SS 08,0.025 µg/mL
same,MIC,B. cereus ATCC 11778,0.4 µg/mL
same,MIC,Staph. aureus SS 10,0.1 µg/mL
same,MIC,S. infantis SS 08,100 µg/mL
same,MIC,B. anthranis SS 08,0.4 µg/mL
same,MIC,C. albicans SS 04,100 µg/mL
same,ED50,D. pneumoniae SS 23 [4],114 mg/kg
same,MIC,Pr. vulgaris SS 10,> 200 µg/mL
same,MIC,H. tubercolosis SS 03,50 µg/mL
same,MIC,Kl. pneumoniae SS 04,100 µg/mL
same,MIC,Pr. mirabilis SS 09,> 200 µg/mL
same,MIC,Staph. aureus SS 07 [5],0.025 µg/mL
same,MIC,E. coli SS 06,100 µg/mL
same,ED50,Staph. aureus SS 07 [6],2.09 mg/kg
same,MIC,D. pneumoniae SS 23 [7],0.05 µg/mL
same,MIC,Ps. aeruginosa SS 10,100 µg/mL
same,MIC,Staph. albus SS 04,0.05 µg/mL
same,MIC,B. subtilis ATCC 6633,0.025 µg/mL
same,MIC,Br. abortus SS 7,12 µg/mL
same,MIC,N. meningitidis SS 04,0.8 µg/mL
same,MIC,Cl. tetani SS 17,0.4 µg/mL
same,MIC,E. aerogenes SS 011,100 µg/mL
same,MIC,B. anthranis SS 09,0.4 µg/mL
same,LD50 at 240 h,Acute toxicity,> 3000 mg/kg
same,MIC,Strept. faecalis SS 19,0.1 µg/mL
same,MIC,Staph. albus SS 03,0.05 µg/mL
same,MIC,H. pertussis SS 03,0.4 µg/mL

# From patent US4476120A, “Thiolic derivatives of erythromycin having therapeutic activity, and pharmaceutical compositions containing them” (Sigma Tau Indistrie Farmaceutiche Riunites, p.A, priority 1982, dated 1984)
